In the supplement of paper PMC10307832:

Columns and labels:
Assay in all cases: relative viability (nuclei count vs DMSO), 5 days (fraction); higher = more cells survive
[1] = system: A-427
Outline: (§1)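 Relative viability equals treated-well nuclei counts divided by vehicle-well nuclei counts. Counts came from 4× images of lung cancer cell lines grown in 1536-well plates for 5 days after pin-tool dosing on the day after seeding. Dosing used one drug alone or a fixed anchor-drug dose plus five library-drug doses (not always all listed) in √10 steps, and values are medians of duplicate plates.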

[2] = system: ChaGo-K-1
Outline: as §1

[3] = system: EKVX
Outline: as §1

[4] = system: H3255
Outline: as §1

[5] = system: LK-2
Outline: as §1

[6] = system: NCI-H1355
Outline: as §1

[7] = system: NCI-H1650
Outline: as §1

[8] = system: NCI-H1666
Outline: as §1

[9] = system: NCI-H1755
Outline: as §1

[10] = system: NCI-H1944
Outline: as §1

[11] = system: NCI-H2085
Outline: as §1

[12] = system: NCI-H2228
Outline: as §1

[13] = system: NCI-H2347
Outline: as §1

[14] = system: NCI-H3122
Outline: as §1

[15] = system: NCI-H322M
Outline: as §1

[16] = system: NCI-H441
Outline: as §1

[17] = system: NCI-H460
Outline: as §1

[18] = system: NCI-H520
Outline: as §1

[19] = system: NCI-H596
Outline: as §1

[20] = system: NCI-H838
Outline: as §1

[21] = system: SW 1573
Outline: as §1

[22] = system: NCI-H650
Outline: as §1

## Cc1cnc(-c2cnc(NCCNc3ccc(C#N)cn3)nc2-c2ccc(Cl)cc2Cl)[nH]1 + CC1(C)CCC(c2ccc(Cl)cc2)=C(CN2CCN(c3ccc(C(=O)NS(=O)(=O)c4ccc(N[C@H](CCN5CCOCC5)CSc5ccccc5)c(S(=O)(=O)C(F)(F)F)c4)cc3)CC2)C1 [Navitoclax] (partner 0.5 µM)
[1]; first compound 0.08 µM
  relative viability: 0.939
[1]; first compound 0.253 µM
  relative viability: 0.947
[1]; first compound 0.8 µM
  relative viability: 0.973
[1]; first compound 2.53 µM
  relative viability: 0.925
[2]; first compound 0.08 µM
  relative viability: 0.791
[2]; first compound 0.253 µM
  relative viability: 0.863
[2]; first compound 0.8 µM
  relative viability: 0.516
[2]; first compound 2.53 µM
  relative viability: 0.856
[3]; first compound 0.08 µM
  relative viability: 0.715
[3]; first compound 0.253 µM
  relative viability: 0.844
[3]; first compound 0.8 µM
  relative viability: 0.905
[3]; first compound 2.53 µM
  relative viability: 0.814
[4]; first compound 0.08 µM
  relative viability: 0.413
[4]; first compound 0.253 µM
  relative viability: 0.424
[4]; first compound 0.8 µM
  relative viability: 0.508
[4]; first compound 2.53 µM
  relative viability: 0.361
[5]; first compound 0.08 µM
  relative viability: 1.01
[5]; first compound 0.253 µM
  relative viability: 0.9
[5]; first compound 0.8 µM
  relative viability: 0.872
[5]; first compound 2.53 µM
  relative viability: 1.28
[6]; first compound 0.08 µM
  relative viability: 1.03
[6]; first compound 0.253 µM
  relative viability: 0.858
[6]; first compound 0.8 µM
  relative viability: 0.884
[6]; first compound 2.53 µM
  relative viability: 0.938
[7]; first compound 0.08 µM
  relative viability: 1.13
[7]; first compound 0.253 µM
  relative viability: 1.05
[7]; first compound 0.8 µM
  relative viability: 1.42
[7]; first compound 2.53 µM
  relative viability: 1.21
[8]; first compound 0.08 µM
  relative viability: 0.921
[8]; first compound 0.253 µM
  relative viability: 0.868
[8]; first compound 0.8 µM
  relative viability: 0.835
[8]; first compound 2.53 µM
  relative viability: 1.26
[9]; first compound 0.08 µM
  relative viability: 1.07
[9]; first compound 0.253 µM
  relative viability: 0.866
[9]; first compound 0.8 µM
  relative viability: 1.01
[9]; first compound 2.53 µM
  relative viability: 0.989
[10]; first compound 0.08 µM
  relative viability: 1.03
[10]; first compound 0.8 µM
  relative viability: 0.992
[10]; first compound 2.53 µM
  relative viability: 1
[11]; first compound 0.08 µM
  relative viability: 1.17
[11]; first compound 0.253 µM
  relative viability: 1.15
[11]; first compound 0.8 µM
  relative viability: 1.03
[11]; first compound 2.53 µM
  relative viability: 1.16
[12]; first compound 0.08 µM
  relative viability: 0.854
[12]; first compound 0.253 µM
  relative viability: 1.14
[12]; first compound 0.8 µM
  relative viability: 0.796
[12]; first compound 2.53 µM
  relative viability: 0.536
[13]; first compound 0.08 µM
  relative viability: 0.947
[13]; first compound 0.253 µM
  relative viability: 0.625
[13]; first compound 0.8 µM
  relative viability: 0.832
[13]; first compound 2.53 µM
  relative viability: 0.857
[14]; first compound 0.08 µM
  relative viability: 0.988
[14]; first compound 0.253 µM
  relative viability: 0.881
[14]; first compound 0.8 µM
  relative viability: 0.977
[14]; first compound 2.53 µM
  relative viability: 0.994
[15]; first compound 0.08 µM
  relative viability: 1.3
[15]; first compound 0.253 µM
  relative viability: 1.25
[15]; first compound 0.8 µM
  relative viability: 1.14
[15]; first compound 2.53 µM
  relative viability: 1.2
[16]; first compound 0.08 µM
  relative viability: 0.719
[16]; first compound 0.253 µM
  relative viability: 0.535
[16]; first compound 0.8 µM
  relative viability: 0.745
[16]; first compound 2.53 µM
  relative viability: 0.57
[17]; first compound 0.08 µM
  relative viability: 1.16
[17]; first compound 0.253 µM
  relative viability: 1.12
[17]; first compound 0.8 µM
  relative viability: 1.17
[17]; first compound 2.53 µM
  relative viability: 1.04
[18]; first compound 0.08 µM
  relative viability: 1.22
[18]; first compound 0.253 µM
  relative viability: 1.13
[18]; first compound 0.8 µM
  relative viability: 1.24
[18]; first compound 2.53 µM
  relative viability: 1.13
[19]; first compound 0.08 µM
  relative viability: 1.1
[19]; first compound 0.253 µM
  relative viability: 0.79
[19]; first compound 0.8 µM
  relative viability: 0.882
[19]; first compound 2.53 µM
  relative viability: 0.897
[20]; first compound 0.08 µM
  relative viability: 1.21
[20]; first compound 0.253 µM
  relative viability: 1.11
[20]; first compound 0.8 µM
  relative viability: 1.44
[20]; first compound 2.53 µM
  relative viability: 1.6
[21]; first compound 0.08 µM
  relative viability: 1.29
[21]; first compound 0.253 µM
  relative viability: 0.801
[21]; first compound 0.8 µM
  relative viability: 1.01
[21]; first compound 2.53 µM
  relative viability: 0.685

## Cc1cnc(-c2cnc(NCCNc3ccc(C#N)cn3)nc2-c2ccc(Cl)cc2Cl)[nH]1 + CC(C)C[C@H](NC(=O)[C@H](Cc1ccccc1)NC(=O)c1cnccn1)B(O)O [Bortezomib] (partner 0.002 µM)
[1]; first compound 0.08 µM
  relative viability: 0.972
[1]; first compound 0.253 µM
  relative viability: 1.03
[1]; first compound 0.8 µM
  relative viability: 0.993
[1]; first compound 2.53 µM
  relative viability: 0.975
[2]; first compound 0.08 µM
  relative viability: 1.07
[2]; first compound 0.253 µM
  relative viability: 0.886
[2]; first compound 0.8 µM
  relative viability: 0.598
[2]; first compound 2.53 µM
  relative viability: 0.991
[3]; first compound 0.08 µM
  relative viability: 0.93
[3]; first compound 0.253 µM
  relative viability: 0.948
[3]; first compound 0.8 µM
  relative viability: 0.975
[3]; first compound 2.53 µM
  relative viability: 0.961
[4]; first compound 0.08 µM
  relative viability: 0.91
[4]; first compound 0.253 µM
  relative viability: 0.563
[4]; first compound 0.8 µM
  relative viability: 0.95
[4]; first compound 2.53 µM
  relative viability: 0.656
[6]; first compound 0.08 µM
  relative viability: 1.29
[6]; first compound 0.253 µM
  relative viability: 0.961
[6]; first compound 0.8 µM
  relative viability: 1.04
[6]; first compound 2.53 µM
  relative viability: 1.15
[7]; first compound 0.08 µM
  relative viability: 0.207
[7]; first compound 0.253 µM
  relative viability: 0.214
[7]; first compound 0.8 µM
  relative viability: 0.24
[7]; first compound 2.53 µM
  relative viability: 0.207
[8]; first compound 0.08 µM
  relative viability: 0.824
[8]; first compound 0.253 µM
  relative viability: 0.857
[8]; first compound 0.8 µM
  relative viability: 0.764
[8]; first compound 2.53 µM
  relative viability: 0.886
[9]; first compound 0.08 µM
  relative viability: 1.02
[9]; first compound 0.253 µM
  relative viability: 0.889
[9]; first compound 0.8 µM
  relative viability: 0.828
[9]; first compound 2.53 µM
  relative viability: 0.994
[11]; first compound 0.08 µM
  relative viability: 1.12
[11]; first compound 0.253 µM
  relative viability: 1.17
[11]; first compound 0.8 µM
  relative viability: 0.957
[11]; first compound 2.53 µM
  relative viability: 1.02
[12]; first compound 0.08 µM
  relative viability: 1.04
[12]; first compound 0.253 µM
  relative viability: 0.879
[12]; first compound 0.8 µM
  relative viability: 0.986
[12]; first compound 2.53 µM
  relative viability: 0.912
[13]; first compound 0.08 µM
  relative viability: 0.812
[13]; first compound 0.253 µM
  relative viability: 0.914
[13]; first compound 0.8 µM
  relative viability: 1.16
[13]; first compound 2.53 µM
  relative viability: 1.13
[14]; first compound 0.08 µM
  relative viability: 1.03
[14]; first compound 0.253 µM
  relative viability: 0.925
[14]; first compound 0.8 µM
  relative viability: 0.997
[14]; first compound 2.53 µM
  relative viability: 0.972
[15]; first compound 0.08 µM
  relative viability: 1.13
[15]; first compound 0.253 µM
  relative viability: 1.1
[15]; first compound 0.8 µM
  relative viability: 1.22
[15]; first compound 2.53 µM
  relative viability: 1.31
[16]; first compound 0.08 µM
  relative viability: 0.688
[16]; first compound 0.253 µM
  relative viability: 0.352
[16]; first compound 0.8 µM
  relative viability: 0.707
[16]; first compound 2.53 µM
  relative viability: 0.617
[17]; first compound 0.08 µM
  relative viability: 1.18
[17]; first compound 0.253 µM
  relative viability: 1
[17]; first compound 0.8 µM
  relative viability: 1.07
[17]; first compound 2.53 µM
  relative viability: 0.968
[18]; first compound 0.08 µM
  relative viability: 0.72
[18]; first compound 0.253 µM
  relative viability: 0.551
[18]; first compound 0.8 µM
  relative viability: 0.473
[18]; first compound 2.53 µM
  relative viability: 0.523
[19]; first compound 0.08 µM
  relative viability: 1.19
[19]; first compound 0.253 µM
  relative viability: 0.802
[19]; first compound 0.8 µM
  relative viability: 1.09
[19]; first compound 2.53 µM
  relative viability: 1.12
[22]; first compound 0.08 µM
  relative viability: 0.707
[22]; first compound 0.253 µM
  relative viability: 0.819
[22]; first compound 0.8 µM
  relative viability: 0.838
[22]; first compound 2.53 µM
  relative viability: 0.744
[20]; first compound 0.08 µM
  relative viability: 0.853
[20]; first compound 0.253 µM
  relative viability: 0.757
[20]; first compound 0.8 µM
  relative viability: 0.889
[20]; first compound 2.53 µM
  relative viability: 0.99
[21]; first compound 0.08 µM
  relative viability: 1.09
[21]; first compound 0.253 µM
  relative viability: 0.899
[21]; first compound 0.8 µM
  relative viability: 1.13
[21]; first compound 2.53 µM
  relative viability: 0.925
